The test system of one data set is Type I IFNs. Briefly: Whole-blood assay, type I IFN induction (HEK-Blue IFN-α/β-KO-STING readout). Format: cell-based, human. The note with it: for EC50: whole blood assay, type I IFN, read-out: EC50 (μM) IFN in WBA; for induction of type I IFNs in whole-blood assay (comparison in words): healthy human donors, dose-response. From the text:
Type I IFNs: HEK-Blue™ IFN-α/β-KO-STING: These cells, in which the STING gene has been inactivated, are derived from HEK293 cell line known as HEK-Blue™ IFN-α/β (InvivoGen catalog code: hkb-ifnab). HEK-Blue™ IFN-α/β cells enable detection of bioactive human type I IFNs through monitoring of activation of the […]. These cells were generated by stable transfection of HEK293 cells with the human STAT2 and IRF9 genes to obtain a fully active Type-I IFN signaling pathway. The other genes of the pathway (IFNAR1, IFNAR2, JAK1, TyK2 and STAT1) are naturally expressed in sufficient amounts. The cells were further transfected with a SEAP reporter gene under control of an IFNα/β-inducible ISG54 promoter. This promoter comprises five IFN-stimulated response elements (ISREs) fused to a minimal promoter of the human ISG54 gene, which is unresponsive to activators of the NF-κB or AP-1 pathways. Stimulation of HEK-Blue™ IFN-α/β cells with human IFN-α or IFN-β activates the JAK/STAT/ISGF3 pathway and subsequently induces production of SEAP. Production of type I IFNs in these cells is measured using QUANTI-Blue™.
Briefly, the samples were collected by venipuncture into sodium heparin tubes at the time of donation. The samples were analyzed for rhesus (Rh), blood group, hematocrit and serological status (AgHBS, HIV, HCV, HTLV, HBC, CMV, Syph). The tubes were picked up on the day of collection and subsequently tested (blood analysis, and treatment with test items) on the same day.
Each blood sample was diluted (1:2 [v/v]) in RPMI medium and aliquoted into 96-well plates (180-μL wells) containing either CDN (√10-fold serial dilution starting from 50 μM). The plates were incubated at 37° C. in a 5% CO2 incubator for 18 hours. Then, the supernatants were collected, transferred into the corresponding wells of round-bottom 96-well plates, and either stored at −80° C., or immediately tested in the appropriate reporter cell line.
A new 96-wells plate was prepared for each reporter cell lines tested, as follows: 10 μL of supernatant from the previous plate were added to the corresponding well in the new reporter cell plate. Then, a 190-μL aliquot of cells of the desired reporter cell line, previously harvested in medium containing heat-inactivated serum and counted, was added to each well (approximately 50,000 cells/well), and the plate was incubated for approximately 20 hours. The desired cytokine induction activity was determined using the QUANTI-Blue™ assay, as previously described. Briefly, 20 μL of supernatant from the previously incubated plate was transferred to the corresponding well of a new 96-well plate in which 180 μL of QUANTI-Blue™ reagent had previously been added.

Data set [1] in a line: Lipid-based nanoparticle formation (PdI, Z Ave). Format: physicochemical. The note with it: for Z Ave (nm): lipid BAM-CDN particles; for PdI: polydispersity index of lipid BAM-CDN.
The target in data set [2] is T1, STING (Mus musculus, UniProt Q3TBT3).
T1 sequence (Q3TBT3 1-378): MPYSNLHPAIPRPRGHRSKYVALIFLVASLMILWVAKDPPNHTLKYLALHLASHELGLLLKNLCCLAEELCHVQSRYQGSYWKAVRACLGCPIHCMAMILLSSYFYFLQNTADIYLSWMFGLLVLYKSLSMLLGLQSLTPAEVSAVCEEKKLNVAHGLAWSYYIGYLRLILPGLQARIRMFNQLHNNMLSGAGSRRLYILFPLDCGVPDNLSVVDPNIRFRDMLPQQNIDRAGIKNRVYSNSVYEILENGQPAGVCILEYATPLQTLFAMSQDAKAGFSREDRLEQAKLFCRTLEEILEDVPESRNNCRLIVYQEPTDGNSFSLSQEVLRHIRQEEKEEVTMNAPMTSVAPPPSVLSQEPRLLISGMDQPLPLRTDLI
As to the kind of experiment: ISG reporter assay in RAW-Lucia ISG cells. (In general: A reporter such as luciferase makes a cellular process visible.)

The target in data set [3] is STING (Homo sapiens, UniProt Q86WV6, G230A/H232R/R293Q/R71H). Briefly: ISG54 (IRF pathway) reporter assay in THP1-Dual cells. The note with it: for ISG activity compared with unmodified parental CDN: THP1-Dual cells.
Chain of STING (Homo sapiens, UniProt Q86WV6, G230A/H232R/R293Q/R71H) (Q86WV6 whole entry R71H/G230A/H232R/R293Q): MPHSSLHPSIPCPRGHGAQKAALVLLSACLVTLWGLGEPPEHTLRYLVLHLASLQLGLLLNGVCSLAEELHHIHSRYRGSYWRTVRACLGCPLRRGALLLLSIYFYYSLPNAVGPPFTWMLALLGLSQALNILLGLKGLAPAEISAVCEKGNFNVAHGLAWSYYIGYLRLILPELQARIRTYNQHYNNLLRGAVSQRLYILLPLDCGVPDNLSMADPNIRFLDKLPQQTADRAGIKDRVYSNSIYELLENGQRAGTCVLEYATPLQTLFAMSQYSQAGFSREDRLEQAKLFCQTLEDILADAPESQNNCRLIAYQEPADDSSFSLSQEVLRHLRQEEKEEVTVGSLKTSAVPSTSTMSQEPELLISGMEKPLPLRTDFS

The structures appear in SMILES notation. Entries after “also recorded” stand apart in the source; their conditions may differ.

As a reminder, the EC50 is the concentration giving half of the maximal effect. In the case of `CCCCCCCCCCCCCC(=O)OC(CCCCCCCCCCC)CC(=O)N[C@H](C(=O)N[C@@H](CCCNC(N)=O)C(=O)Nc1ccc(CSP2(=O)OC[C@H]3O[C@@H](n4cnc5c(N)ncnc54)[C@H](F)[C@@H]3OP(=O)(S)OC[C@H]3O[C@@H](n4cnc5c(O)ncnc54)[C@H](F)[C@@H]3O2)cc1)C(C)C` (some centres unmarked) [CL861], the EC50 with Type I IFNs is 0.01 µM. Moreover, in data set [1], the “self-organization in lipid-based nanoparticles / particle size” value is “can self-organize/assemble in lipid-based nanoparticles; also recorded: the size tends to be smaller, around the size of Small Unilamellar Vesicle”; the “Z Ave (nm)” value worked out at 36.8 nm; the PdI is 0.183.
As to `CCCCCCCC(=O)N[C@H](C(=O)N[C@@H](C)C(=O)Nc1ccc(CSP2(=O)OC[C@H]3O[C@@H](n4cnc5c(N)ncnc54)[C@H](F)[C@@H]3OP(=O)(S)OC[C@H]3O[C@@H](n4cnc5c(O)ncnc54)[C@H](F)[C@@H]3O2)cc1)C(C)C` (some centres unmarked) [CL840], the concentration giving a half-maximal response (EC50) with Type I IFNs worked out at 0.13 µM. Also, in data set [1], the “Z Ave (nm)” value is reported as 168.9 nm and the PdI was found to be 0.08.
With `CCCCCCCC(=O)N[C@H](C(=O)N[C@@H](C)C(=O)Nc1ccc(CSP2(=O)OC[C@H]3O[C@@H](n4cnc5c(O)ncnc54)[C@H](F)[C@@H]3OP(=O)(SCc3ccc(NC(=O)[C@H](C)NC(=O)[C@@H](NC(=O)CCCCCCC)C(C)C)cc3)OC[C@H]3O[C@@H](n4cnc5c(N)ncnc54)[C@H](F)[C@@H]3O2)cc1)C(C)C` (some centres unmarked) [CL842], the EC50 with Type I IFNs is 1.4 µM. For the same compound, in data set [1], the “self-organization in lipid-based nanoparticles / particle size” value is recorded as “can self-organize/assemble in lipid-based nanoparticles”, the “Z Ave (nm)” value was 184 nm and the PdI is on record as 0.086.
For the compound `CCCCCCCCCCCCCCCC(=O)N[C@H](C(=O)N[C@@H](C)C(=O)Nc1ccc(CSP2(=O)OC[C@H]3O[C@@H](n4cnc5c(N)ncnc54)[C@H](F)[C@@H]3OP(=O)(S)OC[C@H]3O[C@@H](n4cnc5c(O)ncnc54)[C@H](F)[C@@H]3O2)cc1)C(C)C` (some centres unmarked) [CL863], in the data set on Type I IFNs, the EC50 is 0.15 µM. Also, in data set [1], the “Z Ave (nm)” value is 106.6 nm and the PdI is 0.416. Moreover, the “ISG activity compared with unmodified parental CDN” value at STING [2] is “higher ISG activity than the unmodified parental CDN”. In addition, on STING [3], the “ISG activity compared with unmodified parental CDN” value is given as “higher ISG activity than the unmodified parental CDN”.
Regarding `CCCCCCCCCCCCCCCC(=O)N[C@H](C(=O)N[C@@H](CCCNC(N)=O)C(=O)Nc1ccc(CSP2(=O)OC[C@H]3O[C@@H](n4cnc5c(N)ncnc54)[C@H](F)[C@@H]3OP(=O)(O)OC[C@H]3O[C@@H](n4cnc5c(O)ncnc54)C[C@@H]3O2)cc1)C(C)C` (some centres unmarked) [CL848], in the data set with Type I IFNs, the EC50 amounted to 0.11 µM. Also, the “Z Ave (nm)” value in data set [1] is recorded as 84.3 nm. For the same compound, in data set [1], the PdI is listed as 0.18. The “ISG activity compared with unmodified parental CDN” value on STING [2] and at STING [3] was “higher ISG activity than the unmodified parental CDN” each time.
For the compound `Nc1ncnc2c1ncn2[C@@H]1O[C@@H]2COP(=O)(S)O[C@H]3C[C@H](n4cnc5c(=O)[nH]cnc54)O[C@@H]3COP(=O)(S)O[C@H]2[C@H]1F` (some centres unmarked) [CL702, reference compound], the “induction of type I IFNs in whole-blood assay (comparison in words)” value in the data set with Type I IFNs is listed as “superior induction of type I interferons compared to the reference compound 2′3′-cGAMP”.
`CCCCCCCCCCCCCCCC(=O)N[C@H](C(=O)N[C@@H](C)C(=O)Nc1ccc(CSP2(=O)OC[C@H]3O[C@@H](n4cnc5c(N)ncnc54)[C@H](F)[C@@H]3OP(=O)(O)OC[C@H]3O[C@@H](n4cnc5c(O)ncnc54)[C@H](F)[C@@H]3O2)cc1)C(C)C` (some centres unmarked) [CL849]: the “Z Ave (nm)” value in data set [1] was found to be 152.4 nm. This compound also displayed a PdI in data set [1] of 0.56. For the same compound, the “ISG activity compared with unmodified parental CDN” value on STING [2] and on STING [3] was “higher ISG activity than the unmodified parental CDN” each time.
For `CC(C)[C@H](NC(=O)OC(C)(C)C)C(=O)N[C@@H](CCCNC(N)=O)C(=O)Nc1ccc(CSP2(=O)OC[C@H]3O[C@@H](n4cnc5c(=O)[nH]cnc54)C[C@@H]3OP(=O)(SCc3ccc(NC(=O)[C@H](CCCNC(N)=O)NC(=O)[C@@H](NC(=O)OC(C)(C)C)C(C)C)cc3)OC[C@H]3O[C@@H](n4cnc5c(N)ncnc54)[C@H](F)[C@@H]3O2)cc1` (some centres unmarked) [CL793], the “induction of type I IFNs in whole-blood assay (comparison in words)” value with Type I IFNs was “superior induction of type I interferons compared to the reference compound 2′3′-cGAMP”.
In the case of `CCCCCCCCCCCCCC(=O)OC(CCCCCCCCCCC)CC(=O)N[C@H](C(=O)N[C@@H](CCCNC(N)=O)C(=O)Nc1ccc(CSP2(=O)OC[C@H]3O[C@@H](n4cnc5c(N)ncnc54)[C@H](F)[C@@H]3OP(=O)(O)OC[C@H]3O[C@@H](n4cnc5c(O)ncnc54)[C@H](F)[C@@H]3O2)cc1)C(C)C` (some centres unmarked) [CL860], the 50% effective concentration (EC50) in the data set with Type I IFNs stood at 0.009 µM. Moreover, in data set [1], the “self-organization in lipid-based nanoparticles / particle size” value was “can self-organize/assemble in lipid-based nanoparticles; also recorded: the size tends to be smaller, around the size of Small Unilamellar Vesicle”; the “Z Ave (nm)” value is recorded as 33 nm; the PdI was determined as 0.248.
On to `CCCCCCCC(=O)N[C@H](C(=O)N[C@@H](C)C(=O)Nc1ccc(CSP2(=O)OC[C@H]3O[C@@H](n4cnc5c(N)ncnc54)[C@H](F)[C@@H]3OP(=O)(O)OC[C@H]3O[C@@H](n4cnc5c(O)ncnc54)C[C@@H]3O2)cc1)C(C)C` (some centres unmarked) [CL821], for which, in the data set with Type I IFNs, the EC50 amounted to 7.1 µM. Further, in data set [1], the “Z Ave (nm)” value stood at 54.9 nm and the PdI is recorded as 0.27. Further, at STING [3] (FIG. 6, human or murine reporter cell), the “EC50 rank order (lipid chain length)” value is “EC50 (CL821=C8-CL797)<EC50 (CL820=C4-CL797)”.
`CCCCCCCC(=O)N[C@H](C(=O)N[C@@H](C)C(=O)Nc1ccc(CSP2(=O)OC[C@H]3O[C@@H](n4cnc5c(N)ncnc54)[C@H](F)[C@@H]3OP(=O)(O)OC[C@H]3O[C@@H](n4cnc5c(O)ncnc54)[C@H](F)[C@@H]3O2)cc1)C(C)C` (some centres unmarked) [CL841]: the EC50 with Type I IFNs worked out at 3.03 µM. In data set [1], the “Z Ave (nm)” value was 264.3 nm and the PdI was 0.475.
On to `CCCCCCCCCCCCCC(=O)OC(CCCCCCCCCCC)CC(=O)N[C@H](C(=O)N[C@@H](C)C(=O)Nc1ccc(CSP2(=O)OC[C@H]3O[C@@H](n4cnc5c(N)ncnc54)[C@H](F)[C@@H]3OP(=O)(O)OC[C@H]3O[C@@H](n4cnc5c(O)ncnc54)C[C@@H]3O2)cc1)C(C)C` (some centres unmarked) [CL838], for which the EC50 in the data set on Type I IFNs is 0.009 µM. In addition, in data set [1], the “self-organization in lipid-based nanoparticles / particle size” value is reported as “can self-organize/assemble in lipid-based nanoparticles”, the “Z Ave (nm)” value is given as 91 nm and the PdI is 0.214.
For the compound `CCCCCCCCCCCCCCCC(=O)N[C@H](C(=O)N[C@@H](CCCNC(N)=O)C(=O)Nc1ccc(CSP2(=O)OC[C@H]3O[C@@H](n4cnc5c(N)ncnc54)[C@H](F)[C@@H]3OP(=O)(S)OC[C@H]3O[C@@H](n4cnc5c(O)ncnc54)[C@H](F)[C@@H]3O2)cc1)C(C)C` (some centres unmarked) [CL853], the EC50 in the data set with Type I IFNs was 0.14 µM. Moreover, in data set [1], the “Z Ave (nm)” value worked out at 155.9 nm and the PdI was found to be 0.188. Further, the “ISG activity compared with unmodified parental CDN” value on STING [2] is on record as “higher ISG activity than the unmodified parental CDN”. In addition, at STING [3], the “ISG activity compared with unmodified parental CDN” value is “higher ISG activity than the unmodified parental CDN”.

(Values after US11730817B2, “Pro-cyclic dinucleotides and pro-cyclic dinucleotide conjugates for cytokine induction” (INVIVOGEN, priority 2017, dated 2023).)
